Reference: publication PMC8154124, “Design, Synthesis, Anticancer Evaluation, Enzymatic Assays, and a Molecular Modeling Study of Novel Pyrazole–Indole Hybrids” (ACS Omega, 2021)

Key:
[1] = test system: human liver carcinoma (HepG2); assay: MTT cytotoxicity assay, HepG2; format: cell-based; conditions: 48 h, mean ± SD
Description: (§1) The cells of human liver carcinoma (HepG2), human breast adenocarcinoma (MCF-7), human colorectal carcinoma (HCT-116), and human lung carcinoma (A549) were purchased from the American Type Culture Collection (Rockville, MD). All cells were maintained in a Dulbecco’s modified Eagle’s medium (DMEM), which was supplemented with 10% of heat-inactivated fetal bovine serum (FBS) and 100 U/mL penicillin and streptomycin each. The cells were grown at 37 °C in a humidified atmosphere of 5% CO2.
(§2) The cytotoxicity activities on the human liver carcinoma (HepG2), human breast adenocarcinoma (MCF-7), human colorectal carcinoma (HCT-116), and human lung carcinoma (A549) cell lines were estimated employing the 3-(4,5-dimethyl-2-thiazolyl)-2,5-diphenyl-2H-tetrazolium bromide (MTT) assay, which was grounded on the reduction of the tetrazolium salt by mitochondrial dehydrogenases in viable cells.[51],[52] The cells were dispensed in a 96-well sterile microplate (3 × 10^4 cells/well), followed by their incubation at 37 °C with a series of different concentrations of 10 μL of each compound or doxorubicin (positive control, in DMSO) for 48 h in a serum-free medium prior to the MTT assay. Subsequently, the media were carefully removed, and 40 μL of MTT (2.5 mg/mL) was added to each well and then incubated for an additional 4 h. Purple formazan dye crystals were solubilized by the addition of 200 μL of DMSO. The absorbance was measured at 570 nm using a SpectraMax Paradigm Multi-Mode microplate reader. The relative cell viability was expressed as the mean percentage of viable cells relative to the untreated control cells. All experiments were conducted in triplicate and were repeated on three different days. All of the values were represented as mean ± standard deviation (SD). The IC50s were determined by the SPSS probit analysis software program (SPSS Inc., Chicago, IL).

[2] = test system: human breast adenocarcinoma (MCF-7); assay: MTT cytotoxicity assay, MCF-7; format: cell-based; conditions: MCF7, 48 h, mean ± SD
Description: as §1, §2

[3] = test system: human colorectal carcinoma (HCT-116); assay: MTT cytotoxicity assay, HCT-116; format: cell-based; conditions: 48 h, mean ± SD
Description: as §1, §2

[4] = test system: human lung carcinoma (A549); assay: MTT cytotoxicity assay, A549; format: cell-based; conditions: 48 h, mean ± SD
Description: as §1, §2

Bcl-2 = Bcl-2 ELISA in treated HepG2 cells; format: cell-based, human; conditions: for Bcl-2 level relative to control, fold: HepG2, versus control; for Bcl-2: HepG2 cells treated, cont. HepG2 6.222 ± 0.14
Description: Furthermore, it is well known that the antiapoptotic Bcl-2 protein plays a critical role in cancer resistance therapy.[56] Therefore, we have studied the effect of both compounds 7a and 7b on Bcl-2 protein expression levels. They provided a 0.5- and 0.4-fold decrease in the Bcl-2 concentration, respectively.
Activities of Bcl-2 were measured using the Invitrogen Zymed Bcl-2 ELISA Kit, Catalog # 99–0042 (96 tests) (Invitrogen Corporation) according to the manufacturer’s instructions.

caspase-3 = assay: Caspase-3 (active) ELISA in treated HepG2 cells; format: cell-based, human; conditions: for caspase-3 activation, fold higher than the negative control: HepG2, 7a and 7b at 7.9 and 6.1 μM respectively, 24 h; for caspase-3: HepG2 cells treated 24 h, cont. HepG2 67.3 ± 2.8
Description: It has been reported that caspases cascade through either intrinsic or extrinsic pathways that mediate the induction of apoptosis, which may lead to apoptotic cell death.[53]−[55] Caspase-3 is involved in cell shrinkage, chromatin condensation, and DNA fragmentation inside the cells, causing apoptosis induction.
Activities of caspase-3 were measured using the Invitrogen caspase-3 (Active) (human) ELISA kit, Catalog # KHO1091 (96 tests) (Invitrogen Corporation) according to the manufacturer’s instructions.

Bax = Bax ELISA in treated HepG2 cells; format: cell-based, human; conditions: cont. HepG2 5.762 ± 1.18
Description: In addition, the pro-apoptotic protein (Bax) is a protein that accelerates apoptosis by binding to and antagonizing the death repressor activity of Bcl-2.[57] Following any apoptotic stimuli, Bax causes activation of caspase-3 and perpetuates the apoptotic cascade.[58] The Bax protein expression level is altered in various human malignancies.[59],[60] Therefore, the effect of both compounds 7a and 7b on the Bax expression level has been studied.
Activities of Bax were measured using the Human Bax ELISA kit (DRG Human Bax ELISA (EIA-4487) DRG International, Inc.) according to the manufacturer’s instructions.

HepG2 cancer cells [5] = assay: Cell cycle analysis by flow cytometry (PI staining); format: cell-based, human; conditions: for accumulation of cells at the Pre G1 phase, fold compared to the control / increase in S phase, fold compared to the reference control / reduction in the percentage of cells at the G2/M phase, fold: HepG2, 7a and 7b at 7.9 and 6.1 μM respectively, 24 h; for %preG / %DIP G2/M / %DIP G1 / %DIP S: HepG2, Figure 3; for %preG: negative control 1.49%; for %DIP G2/M: negative control 9.7%; for %DIP G1: negative control 43.72%; for %DIP S: negative control 46.58%
Description: To elucidate whether the cytotoxic activity is due to suppression of cell cycle progression, HepG2 cells were exposed to compounds 7a and 7b at concentrations of 7.9 and 6.1 μM, respectively, for 24 h and analyzed using flow cytometry. […] These compounds also provided a slight increase in S phases by 0.1- and 0.14-fold, respectively, compared to the reference control, as shown in Figure 3.
(§3) Cell cycle analysis and apoptosis detection were carried out using flow cytometry.[62] Both HepG2 and MCF-7 cells were seeded at 8 × 10^4 and incubated at 37 °C and 5% CO2 overnight. After treatment with the tested compounds for 24 h, cell pellets were collected and centrifuged (300g, 5 min). For cell cycle analysis, the cell pellets were fixed with 70% ethanol on ice for 15 min and collected again. The collected pellets were incubated with propidium iodide (PI) staining solution (50 μg/mL PI, 0.1 mg/mL RNaseA, 0.05% Triton X-100) at room temperature for 1 h and analyzed using a Gallios flow cytometer (Beckman Coulter, Brea, CA). Apoptosis detection was performed using a FITC annexin V/PI commercial kit (Becton Dickenson, Franklin Lakes, NJ) following the manufacturer’s protocol. The samples were analyzed using fluorescence-activated cell sorting (FACS) with a Gallios flow cytometer (Beckman Coulter, Brea, CA) within 1 h after staining. Data were analyzed using Kaluza v1.2 (Beckman Coulter).

CDK-2 enzyme = CDK-2 enzyme (Homo sapiens, UniProt P24941); assay: In vitro CDK-2 enzyme inhibitory assessment (ELISA); format: biochemical
Description: Estimation of CDK-2 was performed using ELISA through an affinity tag labeled capture antibody and a reporter conjugated detector antibody, which immunocapture the sample analyte in solution. The addition of the standard and samples to the wells is carried out, followed by the addition of the antibody mix. After the incubation period is completed, the wells are washed, and the unrestrained substance is discarded. Then, TMB (3,3′,5,5′-tetramethylbenzidine) substrate is added, and prompted by horseradish peroxidase (HRP), blue coloration appeared. The reaction was stopped by the addition of a stop solution, completely changing the color from blue to yellow. Signals were created equivalently to the quantity of the bound analyte, and the intensity was recorded at a certain wavelength (450 nm) using a Robonik P2000 ELISA reader. The concentrations of the tested compounds were calculated from the plotted curve.

HepG2 cancer cells [6] = assay: Annexin V/PI apoptosis detection by flow cytometry; format: cell-based, human; conditions: negative control DMSO 1.49%
Description: The induction of apoptosis has been investigated using the annexin V/propidium iodide (PI) staining assay for both compounds 7a and 7b on HepG2.
as §3

melting point	IC50 (CDK-2 enzyme)	Compound	IC50 [1]	IC50 [2]	IC50 [3]	IC50 [4]	Bcl-2 level relative to control, fold (Bcl-2)	Bcl-2 (Bcl-2)	caspase-3 activation, fold higher than the negative control (caspase-3)	caspase-3 (caspase-3)	Bax (Bax)	accumulation of cells at the Pre G1 phase, fold compared to the control (HepG2 cancer cells [5])	increase in S phase, fold compared to the reference control (HepG2 cancer cells [5])	reduction in the percentage of cells at the G2/M phase, fold (HepG2 cancer cells [5])	%preG (HepG2 cancer cells [5])	%DIP G2/M (HepG2 cancer cells [5])	%DIP G1 (HepG2 cancer cells [5])	%DIP S (HepG2 cancer cells [5])	total necrosis and apoptosis (early and late) percentage (HepG2 cancer cells [6])
–	0.074 ± 0.15 µM	O=C(Nc1ccccc1)c1c(Nc2ccccc2)n[nH]c1N=Cc1c[nH]c2ccccc12 [7a, 5-((1H-Indol-3-yl)methyleneamino)-N-phenyl-3-(phenylamino)-1H-pyrazole-4-carboxamide]	6.1 ± 1.9 µM	10.6 ± 2.3 µM	17.4 ± 3.2 µM	23.7 ± 3.1 µM	0.5 fold	3.123 ± 0.1 ng/mL	7 fold	388.7 ± 7 pg/mL	211.3 ± 5.9 pg/mL	14.9 fold	0.1 fold	2.4 fold	22.18%	4.11%	44.61%	51.28%	22.18%
–	0.095 ± 0.1 µM	Cc1ccc(NC(=O)c2c(Nc3ccccc3)n[nH]c2N=Cc2c[nH]c3ccccc23)cc1 [7b, 5-((1H-Indol-3-yl)methyleneamino)-3-(phenylamino)-N-(4-methylphenyl)-1H-pyrazole-4-carboxamide]	7.9 ± 1.9 µM	14.5 ± 2.5 µM	19.6 ± 3.5 µM	14.1 ± 2.1 µM	0.4 fold	2.479 ± 0.07 ng/mL	5.8 fold	469.8 ± 10 pg/mL	272.6 ± 11.5 pg/mL	18.5 fold	0.14 fold	29.4 fold	27.51%	0.33%	46.39%	53.28%	27.51%
260 to 262 °C	–	COc1ccc(Nc2n[nH]c(N=Cc3c[nH]c4ccccc34)c2C(N)=O)cc1 [7c, 5-((1H-Indol-3-yl)methyleneamino)-3-(4-methoxyphenylamino)-1H-pyrazole-4-carboxamide]	35.8 ± 3.9 µM	22.2 ± 3.3 µM	31.9 ± 3.8 µM	43.4 ± 4.2 µM	–	–	–	–	–	–	–	–	–	–	–	–	–

Second part, the compound before the results:

Compound	melting point	IC50 (CDK-2 enzyme)	IC50 [1]	IC50 [2]	IC50 [3]	IC50 [4]	Bcl-2 level relative to control, fold (Bcl-2)	Bcl-2 (Bcl-2)	caspase-3 activation, fold higher than the negative control (caspase-3)	caspase-3 (caspase-3)	Bax (Bax)	accumulation of cells at the Pre G1 phase, fold compared to the control (HepG2 cancer cells [5])	increase in S phase, fold compared to the reference control (HepG2 cancer cells [5])	reduction in the percentage of cells at the G2/M phase, fold (HepG2 cancer cells [5])	%preG (HepG2 cancer cells [5])	%DIP G2/M (HepG2 cancer cells [5])	%DIP G1 (HepG2 cancer cells [5])	%DIP S (HepG2 cancer cells [5])	total necrosis and apoptosis (early and late) percentage (HepG2 cancer cells [6])
COc1ccc(Nc2n[nH]c(N=C3C(=O)N(C)c4ccccc43)c2C(N)=O)cc1 [5c, 3-(4-Methoxyphenylamino)-5-(1-methyl-2-oxoindolin-3-ylideneamino)-1H-pyrazole-4-carboxamide]	265 to 267 °C	–	32.8 ± 3.8 µM	22 ± 3.5 µM	39.5 ± 4.5 µM	40.7 ± 4.1 µM	–	–	–	–	–	–	–	–	–	–	–	–	–
CCN1C(=O)C(=Nc2[nH]nc(Nc3ccc(OC)cc3)c2C(N)=O)c2ccccc21 [5h, 5-(1-Ethyl-2-oxoindolin-3-ylideneamino)-3-(4-methoxyphenylamino)-1H-pyrazole-4-carboxamide]	269 to 271 °C	–	28.2 ± 3.5 µM	25.4 ± 3.9 µM	25.7 ± 4.3 µM	41.9 ± 3.9 µM	–	–	–	–	–	–	–	–	–	–	–	–	–
